Values joined by “and” are separate entries in the source; they are usually repeats but may differ in a detail not shown here. Equal values may be shown once.
How the values were obtained:
BMDM cells = test: CCK8 cell proliferation inhibition assay on CSF1-stimulated bone marrow-derived macrophages; type: cell-based, mice (BALB/c); details: Mus musculus, 72 h exposure
Method: Mice (BALB/c) were subjected to euthanasia and then immersed in 75% alcohol for 3-5 min. The tibias and femurs of the mice were removed with ophthalmic forceps and ophthalmic clips on an ultraclean table. The tibial and femoral joints were cut off and bone marrow cells were washed out with a sterile buffer. Bone marrow cells were filtered with a 70 µm nylon membrane. The filtrate was centrifuged and the supernatant was discarded. An erythrocyte lysate was added to the pellets, which were allowed to incubate for 3-4 min. Then, a sterile buffer was added to stop the lysis reaction. The reactant was centrifuged and the supernatant was discarded, thereby yielding bone marrow cell pellets. The cells were cultured in 1640 medium (supplemented with FBS and 10 ng/mL of CSF1) for 5 to 7 days and identified as macrophages by flow cytometry. CCK8 cell counting kits were used in this assay. Bone marrow-derived macrophages, after induction by CSF1 for 5 to 7 days, were seeded into 96-well culture plates and allowed to incubate overnight. Then, the cells were exposed to compounds at various concentrations for 72 h. A blank control group was set. 10 μL of CCK8 reagent was added to each well and the places were placed in an incubator for 4 to 12 h. The plates were read with a microplate reader at a wavelength of 450 nm. […] Each experiment was independently repeated for three times.

[1] = test system: macrophage marker F4/80 in U87MG tumor tissues; test: Immunohistochemistry of macrophage marker F4/80 in U87MG tumor tissues; type: in vivo, nude mice; details: 40 mg/kg, compared with blank preparation group
Method: (§1) At the end of the in vivo experiments, U87MG and HT-29 xenografts in nude mice were removed and fixed with […] to prepare paraffin sections.
(§2) Expression of individual proteins was assessed using multiplicative quick score method (MQS). This evaluation method takes into account both the staining intensity and the staining range. The method estimates the proportion of positive cells and gives a range score from 1 to 6 (1=1%-4%; 2=5%-19%; 3=20%-39%; 4=40%-59%; 5=60%-79%; 6=80%-100%). The average intensity score of positive stained cells was 0 to 3 (0=no staining; 1=weak staining; 2=moderate staining; 3=strong staining). The total score a (minimum 0 and maximum 18) is then calculated by multiplying the range score by the intensity score.
(§3) For detecting the changes in the macrophage marker F4/80 and M2-type macrophage marker CD206 in the U87MG tumor tissues, quantitative analysis (solvent: n=6, blank preparation: n=6, Compound I (10 mg/kg): n=6, Compound I (20 mg/kg): n=6, Compound I (40 mg/kg): n=6, Axitinib: n=4) was performed on all sections and the experimental data were analyzed for significant differences using the t-test. * denotes p<0.05 as compared with the blank preparation group, ** denotes p<0.01 as compared with the blank preparation group, and denotes p<0.001 as compared with the blank preparation group.

[2] = test system: macrophage marker F4/80 in HT-29 tumor tissues; test: Immunohistochemistry of macrophage marker F4/80 in HT-29 tumor tissues; type: in vivo, nude mice; details: Compound I 5, 10, 20 mg/kg; Axitinib 40 mg/kg
Method: At the end of the in vivo experiments, U87MG and HT-29 xenografts in nude mice were removed and fixed with […] to prepare paraffin sections. Expression of individual proteins was assessed using multiplicative quick score method (MQS). This evaluation method takes into account both the staining intensity and the staining range. […] The average intensity score of positive stained cells was 0 to 3 (0=no staining; 1=weak staining; 2=moderate staining; 3=strong staining). The total score a (minimum 0 and maximum 18) is then calculated by multiplying the range score by the intensity score.

[3] = test system: human glioma U87MG subcutaneous xenografts; test: Human glioma U87MG subcutaneous xenografts in nude mice; type: in vivo, BALB/c nude mice; details: 40 mg/kg bid × 21 po
Method: BALB/c nude female mice of 3-4 weeks old were used, and were provided by […] […] OF MATERIA MEDICA, CHINESE ACADEMY OF SCIENCES.
Human glioma U87MG cells were subcutaneously inoculated into the right axillary fossa of a nude mouse (5×10^6 cells/mouse). After a xenograft was formed, the tumor was transferred to a nude mouse for 1 passage.
Tumor tissues at the vigorous growth stage were removed and cut into pieces of approximately 1.5 mm^3. The tumor fragments were inoculated subcutaneously into the right axillary fossa of nude mice under aseptic conditions. The diameters of the subcutaneous xenografts in nude mice were measured with a vernier caliper. The animals were randomly grouped after the xenografts reached an average volume of about 90 mm^3. Compound I was administered orally at doses of 40 mg/kg, 20 mg/kg and 10 mg/kg twice a day for 21 consecutive days. An equal volume of a blank preparation was administered orally twice a day for 21 consecutive days. The positive control drug Axitinib was administered orally at a dose of 40 mg/kg group twice a day for 21 consecutive days. An equal volume of water for injection was administered to the animals in the solvent group. Throughout the experiment, the diameters of the xenografts were measured twice a week and the mice were weighed at the same time. The tumor volume (TV) was calculated as TV=½×a×b^2, where “a” and “b” denote the length and width of a tumor, respectively. The relative tumor volume (RTV) was calculated from the measurement results with the calculation formula RTV=Vt/V0, in which V0 is the tumor volume measured upon administration after grouping (i.e., D0) and Vt is the tumor volume from each measurement. The evaluation index of anti-tumor activity is the relative tumor proliferation rate T/C (%), which is calculated as T/C (%)=(TRTV/CRTV)×100%, in which TRTV denotes the RTV from the treatment group and CRTV denotes the RTV from solvent group.

[4] = test system: human glioma U87MG brain in situ transplantation; test: Survival in U87MG brain in situ transplantation model in nude mice; type: in vivo, BALB/cA nude mice
[5] = test system: human colorectal cancer HT-29 subcutaneous xenografts; test: Human colorectal cancer HT-29 subcutaneous xenografts in nude mice; type: in vivo, BALB/c nude mice; details: 40 mg/kg bid × 21 po
From the text: BALB/c female nude mice of 6 weeks old were used, and were provided by Shanghai Lingchang Biotechnology Co., Ltd.
Human colorectal cancer HT-29 cells were subcutaneously inoculated into the right axillary fossa of a nude mouse (5×10^6 cells/mouse). After a xenograft was formed, the tumor was transferred to a nude mouse for 1 passage.
Tumor tissues at the vigorous growth stage were removed and cut into pieces of approximately 1.5 mm^3. The tumor fragments were inoculated subcutaneously into the right axillary fossa of nude mice under aseptic conditions. The diameters of the subcutaneous xenografts in nude mice were measured with a vernier caliper. The animals were randomly grouped after the xenografts reached an average volume of about 120 mm^3. Compound I was administered orally at doses of 20 mg/kg, 10 mg/kg and 5 mg/kg twice a day for 21 consecutive days. An equal volume of a blank preparation was administered orally twice a day for 21 consecutive days. The positive control drug Axitinib was administered orally at a dose of 40 mg/kg group twice a day for 21 consecutive days. An equal volume of water for injection was administered to the animals in the solvent group. Throughout the experiment, the diameters of the xenografts were measured twice a week and the mice were weighed at the same time. The tumor volume (TV) was calculated as TV=½×a×b^2, where “a” and “b” denote the length and width of a tumor, respectively. The relative tumor volume (RTV) was calculated from the measurement results with the calculation formula RTV=Vt/V0, in which V0 is the tumor volume measured upon administration after grouping (i.e., D0) and Vt is the tumor volume from each measurement. The evaluation index of anti-tumor activity is the relative tumor proliferation rate T/C (%), which is calculated as T/C (%)=(TRTV/CRTV)×100%, in which TRTV denotes the RTV from the treatment group and CRTV denotes the RTV from solvent group.

[6] = test system: M2-type macrophage marker CD206 in U87MG tumor tissues; test: Immunohistochemistry of M2-type macrophage marker CD206 in U87MG tumor tissues; type: in vivo, nude mice; details: 40 mg/kg
Method: as §1, §2, §3

[7] = test system: M2-type macrophage marker CD206 in HT-29 tumor tissues; test: Immunohistochemistry of M2-type macrophage marker CD206 in HT-29 tumor tissues; type: in vivo, nude mice; details: Compound I 5, 10, 20 mg/kg; Axitinib 40 mg/kg
Method: as §1, §2
as §3, with “the HT-29” for “the U87MG”, “(solvent: n=12,” for “(solvent: n=6,”, “preparation: n=6, Compound I (5 mg/kg):” for “preparation:”, “n=6,” for “n=6, Compound I (40 mg/kg): n=6,”, “Axitinib: n=6)” for “Axitinib: n=4)”

[8] = treated patients; cited from earlier work
[9] = 40 mg/kg, implantation day as Day 0

Compound: FC(F)(F)c1ccc(CNc2ccc(Cc3c[nH]c4ncc(Cl)cc34)cn2)cn1 [PLX3397, Pexidartinib, reference compound]
- IC50 (BMDM cells): 30 ± 9 nM

Compound: CNC(=O)c1ccccc1Sc1ccc2c(/C=C/c3ccccn3)n[nH]c2c1 [Axitinib, reference compound]
- expression of F4/80 in macrophages, U87MG tumor tissue [1]: no significant effect
- expression of F4/80, HT-29 tumor tissue [2]: no inhibitory activity
- Body Weight (g) D 0 ([3]; D 0): 16.0 g
- TV (mm^3, mean ± SD) D 0 ([3]; D 0): 88 ± 17 mm^3
- Body Weight (g) D 21 ([3]; D 21): 18.0 g
- RTV (mean ± SD) ([3]; D 21): 9.08 ± 5.66
- TV (mm^3, mean ± SD) D 21 ([3]; D 21): 795 ± 478 mm^3
- T/C (%) ([3]; Day 21): 30.27%
- Median survival time, MST ([4]; 40 mg/kg po twice a day from Day 8): 41 days and 41.0 days
- day of first death in the group [4, 9]: 28 days
- day of last death in the group [4, 9]: 48 days
- ILS (%), Increase in Life Span ([4]; 40 mg/kg, vs solvent group MST): −10.87%
- Body Weight (g) D 0 ([5]; D 0): 19.1 g
- TV (mm3, mean ± SD) D 0 ([5]; D 0): 123 ± 35 mm3
- Body Weight (g) D 21 ([5]; D 21): 17.5 g
- RTV (mean ± SD) ([5]; D 21): 4.30 ± 1.82
- TV (mm3, mean ± SD) D 21 ([5]; D 21): 505 ± 202 mm3
- T/C (%) ([5]; Day 21): 48.88%
- expression of M2-type macrophage marker CD206, U87MG tumor tissue [6]: no significant effect
- expression of CD206, HT-29 tumor tissue [7]: no inhibitory activity

Compound: Yervoy: an anti-CTLA-4 antibody
- patients experiencing immune-related adverse events [8]: up to 60%
- share of immune-related adverse events that were severe (grade 3-4) [8]: 10-30%

Source: US20230382871A1, “CSF1R KINASE INHIBITOR AND USE THEREOF” (SHANGHAI INSTITUTE OF MATERIA MEDICA, CHINESE ACADEMY OF …, priority 2020, published 2023)
